According to PubChem BioAssay AID1259407 (Chemical Carcinogenesis Research Information System (CCRIS), 2018):
Activity calls are given as the source filed them. No rule for the calls is given here.

Tested on: CCRIS mutagenicity, Ames/micronucleus/aberration tests
Assay: CCRIS mutagenicity studies
[1] = Test System: AMES SALMONELLA TYPHIMURIUM, Strain/Indicator: TA98, Metabolic Activation: HAMSTER, LIVER, S-9, AROCLOR 1254 (10%), Method: PREINCUBATION
[2] = Test System: AMES SALMONELLA TYPHIMURIUM, Strain/Indicator: TA98, Metabolic Activation: NONE, Method: PREINCUBATION
[3] = Test System: AMES SALMONELLA TYPHIMURIUM, Strain/Indicator: TA98, Metabolic Activation: NONE, Method: STANDARD PLATE
[4] = Test System: AMES SALMONELLA TYPHIMURIUM, Strain/Indicator: TA98, Metabolic Activation: RAT, LIVER, S-9, AROCLOR 1254 (10%), Method: PREINCUBATION
[5] = Test System: AMES SALMONELLA TYPHIMURIUM, Strain/Indicator: TA98, Metabolic Activation: RAT, LIVER, S-9, AROCLOR 1254, Method: STANDARD PLATE
[6] = Test System: AMES SALMONELLA TYPHIMURIUM, Strain/Indicator: TA100, Metabolic Activation: HAMSTER, LIVER, S-9, AROCLOR 1254 (10%), Method: PREINCUBATION
[7] = Test System: AMES SALMONELLA TYPHIMURIUM, Strain/Indicator: TA100, Metabolic Activation: NONE, Method: PREINCUBATION
[8] = Test System: AMES SALMONELLA TYPHIMURIUM, Strain/Indicator: TA100, Metabolic Activation: NONE, Method: STANDARD PLATE
[9] = Test System: AMES SALMONELLA TYPHIMURIUM, Strain/Indicator: TA100, Metabolic Activation: RAT, LIVER, S-9, AROCLOR 1254 (10%), Method: PREINCUBATION
[10] = Test System: AMES SALMONELLA TYPHIMURIUM, Strain/Indicator: TA100, Metabolic Activation: RAT, LIVER, S-9, AROCLOR 1254, Method: STANDARD PLATE
[11] = Test System: AMES SALMONELLA TYPHIMURIUM, Strain/Indicator: TA1535, Metabolic Activation: HAMSTER, LIVER, S-9, AROCLOR 1254 (10%), Method: PREINCUBATION
[12] = Test System: AMES SALMONELLA TYPHIMURIUM, Strain/Indicator: TA1535, Metabolic Activation: NONE, Method: PREINCUBATION
[13] = Test System: AMES SALMONELLA TYPHIMURIUM, Strain/Indicator: TA1535, Metabolic Activation: RAT, LIVER, S-9, AROCLOR 1254 (10%), Method: PREINCUBATION
[14] = Test System: AMES SALMONELLA TYPHIMURIUM, Strain/Indicator: TA1537, Metabolic Activation: HAMSTER, LIVER, S-9, AROCLOR 1254 (10%), Method: PREINCUBATION
[15] = Test System: AMES SALMONELLA TYPHIMURIUM, Strain/Indicator: TA1537, Metabolic Activation: NONE, Method: PREINCUBATION
[16] = Test System: AMES SALMONELLA TYPHIMURIUM, Strain/Indicator: TA1537, Metabolic Activation: RAT, LIVER, S-9, AROCLOR 1254 (10%), Method: PREINCUBATION
[17] = Test System: MOUSE LYMPHOMA, Strain/Indicator: L5178Y (TK+/TK-), Metabolic Activation: NONE, Method: SUSPENSION/PLATE

## ClC1=C(Cl)[C@]2(Cl)[C@@H]3[C@H]4C[C@H]([C@@H]5O[C@H]45)[C@@H]3[C@@]1(Cl)C2(Cl)Cl
Test System: AMES SALMONELLA TYPHIMURIUM, Strain/Indicator: TA97, Metabolic Activation: NONE, Method: STANDARD PLATE
  mutagenic call: inactive; negative
Test System: AMES SALMONELLA TYPHIMURIUM, Strain/Indicator: TA97, Metabolic Activation: RAT, LIVER, S-9, AROCLOR 1254, Method: STANDARD PLATE
  mutagenic call: inactive; negative
[1]
  mutagenic call: inactive; negative
[2]
  mutagenic call: inactive; negative
[3]
  mutagenic call: inactive; negative
[4]
  mutagenic call: inactive; negative
[5]
  mutagenic call: inactive; negative
[6]
  mutagenic call: inactive; negative
[7]
  mutagenic call: inactive; negative
[8]
  mutagenic call: inactive; negative
[9]
  mutagenic call: inactive; negative
[10]
  mutagenic call: inactive; negative
Test System: AMES SALMONELLA TYPHIMURIUM, Strain/Indicator: TA102, Metabolic Activation: NONE, Method: STANDARD PLATE
  mutagenic call: inactive; negative
Test System: AMES SALMONELLA TYPHIMURIUM, Strain/Indicator: TA102, Metabolic Activation: RAT, LIVER, S-9, AROCLOR 1254, Method: STANDARD PLATE
  mutagenic call: inactive; negative
[11]
  mutagenic call: inactive; negative
[12]
  mutagenic call: inactive; negative
[13]
  mutagenic call: inactive; negative
[14]
  mutagenic call: inactive; negative
[15]
  mutagenic call: inactive; negative
[16]
  mutagenic call: inactive; negative
[17]
  mutagenic call: inactive; negative
Test System: MOUSE LYMPHOMA, Strain/Indicator: L5178Y (TK+/TK-), Metabolic Activation: RAT, LIVER, S-9, AROCLOR 1254, Method: SUSPENSION/PLATE
  mutagenic call: inactive; negative

## [O-][Cl+]O
End Point: IN VIVO MICRONUCLEUS, Test System: BONE MARROW POLYCHROMATIC ERYTHROCYTES, Species: MOUSE, Strain/Sex: DDY/MALE, Route: ORAL
  mutagenic call: inactive; negative; significant increase at 150 mg/kg
Test System: AMES SALMONELLA TYPHIMURIUM, Strain/Indicator: TA97, Metabolic Activation: NONE, Method: PREINCUBATION
  mutagenic call: inactive; negative
Test System: AMES SALMONELLA TYPHIMURIUM, Strain/Indicator: TA97, Metabolic Activation: RAT, LIVER, S-9, AROCLOR 1254, Method: PREINCUBATION
  mutagenic call: inactive; negative
Test System: AMES SALMONELLA TYPHIMURIUM, Strain/Indicator: TA102, Metabolic Activation: NONE, Method: PREINCUBATION
  mutagenic call: inactive; negative
Test System: AMES SALMONELLA TYPHIMURIUM, Strain/Indicator: TA102, Metabolic Activation: RAT, LIVER, S-9, AROCLOR 1254, Method: PREINCUBATION
  mutagenic call: inactive; negative

## Nc1cc2c(O)c(N=Nc3ccc(N=Nc4ccc(S(=O)(=O)O)cc4)c4ccc(S(=O)O)cc34)c(S(=O)(=O)O)cc2cc1S(=O)(=O)O
[3]
  mutagenic call: inactive; negative
[5]
  mutagenic call: inactive; negative
[8]
  mutagenic call: inactive; negative
[10]
  mutagenic call: inactive; negative
Test System: AMES SALMONELLA TYPHIMURIUM, Strain/Indicator: TA1535, Metabolic Activation: NONE, Method: STANDARD PLATE
  mutagenic call: inactive; negative
Test System: AMES SALMONELLA TYPHIMURIUM, Strain/Indicator: TA1535, Metabolic Activation: RAT, LIVER, S-9, AROCLOR 1254, Method: STANDARD PLATE
  mutagenic call: inactive; negative
Test System: AMES SALMONELLA TYPHIMURIUM, Strain/Indicator: TA1537, Metabolic Activation: NONE, Method: STANDARD PLATE
  mutagenic call: inactive; negative
Test System: AMES SALMONELLA TYPHIMURIUM, Strain/Indicator: TA1537, Metabolic Activation: RAT, LIVER, S-9, AROCLOR 1254, Method: STANDARD PLATE
  mutagenic call: inactive; negative
Test System: AMES SALMONELLA TYPHIMURIUM, Strain/Indicator: TA1538, Metabolic Activation: NONE, Method: STANDARD PLATE
  mutagenic call: inactive; negative
Test System: AMES SALMONELLA TYPHIMURIUM, Strain/Indicator: TA1538, Metabolic Activation: RAT, LIVER, S-9, AROCLOR 1254, Method: STANDARD PLATE
  mutagenic call: inactive; negative

## C1CSCSC1
[3]
  mutagenic call: active; positive
[5]
  mutagenic call: inactive; negative
[8]
  mutagenic call: active; positive
[10]
  mutagenic call: active; positive

## O=C([O-])c1ccc2ccccc2c1.O=C([O-])c1ccc2ccccc2c1.[Pb+2]
[17]
  mutagenic call: active; positive. reevaluation of results: equivocal

## CCCCCOC(=O)NO
Test System: E. COLI, Strain/Indicator: WP2 UVRA, Metabolic Activation: NONE, Method: FLUCTUATION TEST
  mutagenic call: active; positive

## CC(O)c1ccccc1 (stereo unspecified)
[1]
  mutagenic call: inactive; negative
Test System: AMES SALMONELLA TYPHIMURIUM, Strain/Indicator: TA98, Metabolic Activation: HAMSTER, LIVER, S-9, AROCLOR 1254, Method: PREINCUBATION
  mutagenic call: inactive; negative
[2]
  mutagenic call: inactive; negative
[4]
  mutagenic call: inactive; negative
Test System: AMES SALMONELLA TYPHIMURIUM, Strain/Indicator: TA98, Metabolic Activation: RAT, LIVER, S-9, AROCLOR 1254, Method: PREINCUBATION
  mutagenic call: inactive; negative
[6]
  mutagenic call: inactive; negative
Test System: AMES SALMONELLA TYPHIMURIUM, Strain/Indicator: TA100, Metabolic Activation: HAMSTER, LIVER, S-9, AROCLOR 1254, Method: PREINCUBATION
  mutagenic call: inactive; negative
[7]
  mutagenic call: inactive; negative
[9]
  mutagenic call: inactive; negative
Test System: AMES SALMONELLA TYPHIMURIUM, Strain/Indicator: TA100, Metabolic Activation: RAT, LIVER, S-9, AROCLOR 1254, Method: PREINCUBATION
  mutagenic call: inactive; negative
[11]
  mutagenic call: inactive; negative
Test System: AMES SALMONELLA TYPHIMURIUM, Strain/Indicator: TA1535, Metabolic Activation: HAMSTER, LIVER, S-9, AROCLOR 1254, Method: PREINCUBATION
  mutagenic call: inactive; negative
[12]
  mutagenic call: inactive; negative
[13]
  mutagenic call: inactive; negative
Test System: AMES SALMONELLA TYPHIMURIUM, Strain/Indicator: TA1535, Metabolic Activation: RAT, LIVER, S-9, AROCLOR 1254, Method: PREINCUBATION
  mutagenic call: inactive; negative
[14]
  mutagenic call: inactive; negative
Test System: AMES SALMONELLA TYPHIMURIUM, Strain/Indicator: TA1537, Metabolic Activation: HAMSTER, LIVER, S-9, AROCLOR 1254, Method: PREINCUBATION
  mutagenic call: inactive; negative
[15]
  mutagenic call: inactive; negative
[16]
  mutagenic call: inactive; negative
Test System: AMES SALMONELLA TYPHIMURIUM, Strain/Indicator: TA1537, Metabolic Activation: RAT, LIVER, S-9, AROCLOR 1254, Method: PREINCUBATION
  mutagenic call: inactive; negative
[17]
  mutagenic call: active; positive

## COc1ccc2c(c1)-c1nn(CCCN(C)C)c3ccc([N+](=O)[O-])c(c13)N2
Test System: Mouse lymphoma, Strain/Indicator: L5178Y (tk+/tk-), Metabolic Activation: None, Method: Suspension/plate
  mutagenic call: active; positive
Test System: Mouse lymphoma, Strain/Indicator: L5178Y (tk+/tk-), Metabolic Activation: Rat, Liver, S-9, Aroclor 1254, Method: Suspension/plate
  mutagenic call: active; positive
